The structures appear in SMILES notation. pIC50: −log10 of the molar value. The source made the active and inactive calls. No cut-off for these calls is given here.

For data set [1], the target named is T1, Trypsin (Homo sapiens, UniProt P07477+P07478+P35030). Kind of data set: Inhibition of trypsin (unknown origin) at 50 uM using Boc-Val-Pro-Arg-AMC as substrate preincubated with enzyme for 15 mins followed by addition of substrate by fluorescence plate reader analysis relative to control. The class given is protein assay.
Data set [2] in a line: Stability of compound in TRIS buffer at pH 7.5. The class given is physicochemical.
The nature of data set [3]: Stability of compound in phosphate buffer assessed as half life at pH 11. The class given is physicochemical.
The target of data set [4] is T2, Prothrombin (Homo sapiens, UniProt P00734). The experiment in a line: Inhibition of thrombin (unknown origin) using Boc-Val-Pro-Arg-AMC as substrate preincubated with enzyme for 15 mins followed by addition of substrate by fluorescence plate reader analysis.
Data set [5] can be described thus: Stability of compound in phosphate buffer at pH 9. The class given is physicochemical.
Data set [6] concerns the target Genome polyprotein (dengue virus type 2) (UniProt P29990). Kind of data set: Time-dependent inhibition of dengue virus serotype 2 His-tagged NS2B cofactor domain-NS3 protease expressed in Escherichia coli at 50 uM using 2-Abz-Nle-Lys-Arg-Arg-Ser-(3-NO2)-Tyr-NH2 as substrate preincubated with enzyme for 20 to 40 mins followed by substrate addition measured for every 1 sec for 15 mins by fluorescence plate reader based HPLC analysis.

Data set [7] has the same target. Kind of data set: Inhibition of dengue virus serotype 2 His-tagged NS2B catalytic domain-NS3 protease expressed in Escherichia coli at 100 uM using 2-Abz-Nle-Lys-Arg-Arg-Ser-(3-NO2)-Tyr-NH2 as substrate preincubated with enzyme for 1 hr followed by substrate addition measured for every 1 sec for 15 mins by fluorescence plate reader based HPLC analysis relative to control.

Data set [8] addresses T1, Trypsin. Kind of data set: Inhibition of trypsin (unknown origin) using Boc-Val-Pro-Arg-AMC as substrate preincubated with enzyme for 15 mins followed by addition of substrate by fluorescence plate reader analysis. It counts as protein assay.
Data set [9] deals with Genome polyprotein (dengue virus type 2) (UniProt P29990). Kind of data set: Reversible covalent binding affinity at dengue virus serotype 2 His-tagged NS2B cofactor domain-NS3 protease expressed in Escherichia coli assessed as acyl-enzyme adduct formation at 100 uM incubated for 20 hrs by ESI-MS analysis.
For data set [10] the target is unchanged. The experiment in a line: Reversible covalent inhibition of dengue virus serotype 2 His-tagged NS2B catalytic domain-NS3 protease expressed in Escherichia coli using 2-Abz-Nle-Lys-Arg-Arg-Ser-(3-NO2)-Tyr-NH2 as substrate preincubated initially at 100 uM with enzyme for 1 hr followed by dilution with assay buffer to achieve compound concentration of 3.33 uM prior to substrate addition measured immediately after dilution by fluorescence plate reader based HPLC analysis.

For data set [11], the target named is T2, Prothrombin. Kind of data set: Inhibition of thrombin (unknown origin) at 25 uM using Boc-Val-Pro-Arg-AMC as substrate preincubated with enzyme for 15 mins followed by addition of substrate by fluorescence plate reader analysis relative to control.
Data set [12] deals with dengue virus type 2. Kind of data set: Reversible covalent binding affinity at dengue virus serotype 2 His-tagged NS2B cofactor domain-NS3 protease S135A mutant expressed in Escherichia coli assessed as acyl-enzyme adduct formation at 100 uM incubated for 24 hrs by ESI-MS analysis.
In data set [13] the target is Genome polyprotein (dengue virus type 2) (UniProt P29990). Kind of data set: Reversible covalent inhibition of dengue virus serotype 2 His-tagged NS2B catalytic domain-NS3 protease expressed in Escherichia coli at 100 uM using 2-Abz-Nle-Lys-Arg-Arg-Ser-(3-NO2)-Tyr-NH2 as substrate preincubated with enzyme for 1 hr followed by dilution prior to substrate addition measured at 120 mins after dilution by fluorescence plate reader based HPLC analysis.

Data set [14] shares this target. The experiment in a line: Reversible covalent binding affinity at dengue virus serotype 2 His-tagged NS2B cofactor domain-NS3 protease expressed in Escherichia coli assessed as acyl-enzyme adduct formation at 100 uM incubated for 5 to 30 mins by ESI-MS analysis.
Data set [15] is described as follows: Stability of compound in TRIS buffer assessed as half life at pH 9. It counts as physicochemical.
In data set [16] the target is Genome polyprotein (dengue virus type 2) (UniProt P29990). The experiment in a line: Inhibition of dengue virus serotype 2 His-tagged NS2B cofactor domain-NS3 protease expressed in Escherichia coli at 50 uM using 2-Abz-Nle-Lys-Arg-Arg-Ser-(3-NO2)-Tyr-NH2 as substrate preincubated with enzyme for 15 mins followed by substrate addition measured for every 1 sec for 15 mins by fluorescence plate reader based HPLC analysis relative to control.

The target in data set [17] is Genome polyprotein (West Nile virus) (UniProt P06935). The experiment in a line: Inhibition of West Nile virus His-tagged NS2B cofactor domain-NS3 protease expressed in Escherichia coli at 50 uM using 2-Abz-Gly-Leu-Lys-Arg-Gly-Gly-(3-NO2)-Tyr-NH2 as substrate preincubated with enzyme for 15 mins followed by substrate addition measured for every 1 sec for 15 mins by fluorescence microplate reader based HPLC analysis relative to control.
Genome polyprotein (West Nile virus), sequence (P06935 whole entry, the tested form may be a part): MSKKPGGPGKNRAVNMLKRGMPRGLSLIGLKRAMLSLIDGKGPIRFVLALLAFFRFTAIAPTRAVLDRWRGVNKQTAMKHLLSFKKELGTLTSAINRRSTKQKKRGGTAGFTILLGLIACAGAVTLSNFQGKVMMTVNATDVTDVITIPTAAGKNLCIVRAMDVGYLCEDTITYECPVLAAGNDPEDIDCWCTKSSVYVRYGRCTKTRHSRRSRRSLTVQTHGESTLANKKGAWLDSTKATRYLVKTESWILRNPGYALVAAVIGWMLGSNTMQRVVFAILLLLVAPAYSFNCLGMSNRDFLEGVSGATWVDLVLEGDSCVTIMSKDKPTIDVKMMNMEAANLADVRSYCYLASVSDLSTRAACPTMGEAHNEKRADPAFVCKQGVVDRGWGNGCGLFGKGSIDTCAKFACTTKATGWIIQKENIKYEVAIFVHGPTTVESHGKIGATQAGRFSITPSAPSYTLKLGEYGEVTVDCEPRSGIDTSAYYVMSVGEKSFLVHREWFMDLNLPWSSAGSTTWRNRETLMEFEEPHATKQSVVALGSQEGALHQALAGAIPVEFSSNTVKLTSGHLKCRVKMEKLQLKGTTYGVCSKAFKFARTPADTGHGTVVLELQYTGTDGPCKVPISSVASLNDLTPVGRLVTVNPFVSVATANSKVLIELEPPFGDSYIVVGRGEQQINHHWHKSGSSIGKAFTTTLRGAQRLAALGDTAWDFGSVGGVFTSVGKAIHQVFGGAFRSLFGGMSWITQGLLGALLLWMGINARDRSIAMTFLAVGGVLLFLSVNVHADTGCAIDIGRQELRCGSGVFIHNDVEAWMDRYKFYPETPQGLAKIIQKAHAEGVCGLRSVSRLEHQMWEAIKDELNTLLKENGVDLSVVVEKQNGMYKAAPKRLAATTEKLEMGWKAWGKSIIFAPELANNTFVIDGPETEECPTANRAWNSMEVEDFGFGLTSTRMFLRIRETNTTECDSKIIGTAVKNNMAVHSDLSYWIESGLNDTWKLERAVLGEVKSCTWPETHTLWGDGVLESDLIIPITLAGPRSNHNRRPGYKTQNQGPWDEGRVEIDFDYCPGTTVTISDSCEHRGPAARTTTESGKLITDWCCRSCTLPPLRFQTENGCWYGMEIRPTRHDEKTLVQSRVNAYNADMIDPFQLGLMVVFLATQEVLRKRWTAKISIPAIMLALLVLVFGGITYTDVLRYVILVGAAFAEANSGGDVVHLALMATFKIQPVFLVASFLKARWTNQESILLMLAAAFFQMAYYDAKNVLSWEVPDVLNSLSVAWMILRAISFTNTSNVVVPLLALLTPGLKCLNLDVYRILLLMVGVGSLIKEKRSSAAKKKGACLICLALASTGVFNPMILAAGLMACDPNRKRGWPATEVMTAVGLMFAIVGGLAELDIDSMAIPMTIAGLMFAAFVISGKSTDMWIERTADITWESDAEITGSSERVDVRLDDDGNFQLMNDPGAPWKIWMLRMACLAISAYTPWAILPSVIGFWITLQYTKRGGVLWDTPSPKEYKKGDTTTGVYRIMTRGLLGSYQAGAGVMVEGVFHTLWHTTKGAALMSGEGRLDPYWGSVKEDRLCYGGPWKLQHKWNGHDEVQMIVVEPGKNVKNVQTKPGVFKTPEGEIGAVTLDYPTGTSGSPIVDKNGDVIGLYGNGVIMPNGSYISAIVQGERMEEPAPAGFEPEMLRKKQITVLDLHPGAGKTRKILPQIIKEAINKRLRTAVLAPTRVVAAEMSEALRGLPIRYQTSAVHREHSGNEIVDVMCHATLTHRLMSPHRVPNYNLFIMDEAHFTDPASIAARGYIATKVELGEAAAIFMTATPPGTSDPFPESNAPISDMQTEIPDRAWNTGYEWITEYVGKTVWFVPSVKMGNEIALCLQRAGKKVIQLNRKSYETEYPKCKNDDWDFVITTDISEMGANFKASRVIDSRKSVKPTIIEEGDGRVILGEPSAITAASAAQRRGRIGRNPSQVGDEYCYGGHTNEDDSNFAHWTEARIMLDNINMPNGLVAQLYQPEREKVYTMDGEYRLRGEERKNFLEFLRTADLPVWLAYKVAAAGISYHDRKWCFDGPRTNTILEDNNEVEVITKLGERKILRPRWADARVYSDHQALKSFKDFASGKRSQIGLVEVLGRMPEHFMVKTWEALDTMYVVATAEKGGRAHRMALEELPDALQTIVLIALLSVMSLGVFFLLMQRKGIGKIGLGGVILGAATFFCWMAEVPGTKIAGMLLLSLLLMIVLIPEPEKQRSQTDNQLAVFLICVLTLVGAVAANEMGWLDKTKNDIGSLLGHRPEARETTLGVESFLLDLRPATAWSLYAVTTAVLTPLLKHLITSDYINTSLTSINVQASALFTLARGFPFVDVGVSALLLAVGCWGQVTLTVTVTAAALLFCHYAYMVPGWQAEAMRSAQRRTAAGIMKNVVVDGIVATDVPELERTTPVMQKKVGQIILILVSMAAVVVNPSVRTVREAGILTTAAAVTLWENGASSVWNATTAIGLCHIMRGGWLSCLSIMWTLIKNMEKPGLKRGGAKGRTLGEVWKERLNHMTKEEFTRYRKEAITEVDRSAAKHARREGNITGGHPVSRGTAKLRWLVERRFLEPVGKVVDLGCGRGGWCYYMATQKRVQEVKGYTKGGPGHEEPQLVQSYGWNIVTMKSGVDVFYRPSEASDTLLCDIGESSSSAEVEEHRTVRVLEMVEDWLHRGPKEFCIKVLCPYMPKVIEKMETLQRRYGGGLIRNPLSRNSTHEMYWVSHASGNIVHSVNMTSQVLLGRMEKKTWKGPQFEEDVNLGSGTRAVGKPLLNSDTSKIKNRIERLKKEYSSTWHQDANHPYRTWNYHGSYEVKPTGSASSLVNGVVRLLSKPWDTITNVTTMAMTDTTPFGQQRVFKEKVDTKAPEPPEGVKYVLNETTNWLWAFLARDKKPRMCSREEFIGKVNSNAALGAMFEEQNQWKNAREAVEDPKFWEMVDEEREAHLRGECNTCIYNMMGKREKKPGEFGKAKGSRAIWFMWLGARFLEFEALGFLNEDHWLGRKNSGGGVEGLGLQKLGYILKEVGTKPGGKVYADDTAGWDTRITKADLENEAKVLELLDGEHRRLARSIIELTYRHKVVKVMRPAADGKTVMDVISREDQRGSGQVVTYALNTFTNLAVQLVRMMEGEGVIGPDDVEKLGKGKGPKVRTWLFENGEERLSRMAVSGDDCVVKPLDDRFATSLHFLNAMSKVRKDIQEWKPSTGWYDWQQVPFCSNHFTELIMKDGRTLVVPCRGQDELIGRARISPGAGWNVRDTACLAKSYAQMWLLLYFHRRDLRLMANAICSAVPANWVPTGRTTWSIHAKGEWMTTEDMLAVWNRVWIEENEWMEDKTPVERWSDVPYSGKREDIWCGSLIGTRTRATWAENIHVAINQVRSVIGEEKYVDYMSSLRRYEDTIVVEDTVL

Data set [18] concerns the target Genome polyprotein (dengue virus type 2) (UniProt P29990). The experiment in a line: Reversible covalent inhibition of dengue virus serotype 2 His-tagged NS2B catalytic domain-NS3 protease expressed in Escherichia coli using 2-Abz-Nle-Lys-Arg-Arg-Ser-(3-NO2)-Tyr-NH2 as substrate preincubated initially at 100 uM with enzyme for 1 hr followed by dilution with assay buffer to achieve compound concentration of 3.33 uM prior to substrate addition measured after dilution over time by fluorescence plate reader based HPLC analysis.

The target in data set [19] is Genome polyprotein (dengue virus type 2, UniProt P29990). Kind of data set: Inhibition of dengue virus serotype 2 His-tagged NS2B cofactor domain-NS3 protease expressed in Escherichia coli using 2-Abz-Nle-Lys-Arg-Arg-Ser-(3-NO2)-Tyr-NH2 as substrate preincubated with enzyme for 15 mins followed by substrate addition measured for every 1 sec for 15 mins by fluorescence plate reader based HPLC analysis.

Take `N=C(N)Nc1ccc(OC(=O)c2ccc(NC(=N)N)cc2)cc1`: the inhibition was found to be 100% in data set [1]; 100% in data set [7]; 99% in [11]; 98.1% in [16]; 29.8% in data set [17]. Moreover, the Stability entry in data set [2] and in data set [5] was “Stable” in each case. The half-life in data set [3] stood at 17.8 min; in data set [15] it was 16.8 min. For the same molecule, the pIC50 in data set [4] is 5.39; in data set [19], 4.84. Besides, the TDI result in [6] is “Active”. In addition, in data set [8], the IC50 came out at 0.00135 µM. The outcome in data set [9] and in [12] was inactive. In addition, the inhibition entry in data set [10] was “Active”. Further, the inhibition entry in data set [13] and in [18] was “inactive” throughout. In addition, the outcome in data set [14] was Active.
